| melting point | Structure (SMILES) |
| --- | --- |
| 138 to 142 °C | COc1ccc(S(=O)(=O)n2c(CCCC(=O)O)cc3cc(Cl)ccc32)cc1 |
| 157 to 158 °C | COC(=O)c1ccc(COc2ccc(-c3cc(O)c(SCCc4ccccc4)c(=O)o3)cc2)cc1 |
| 230 to 233 °C | O=C(NC(=O)c1c(Cl)cccc1Cl)Nc1ccc(-c2ccc(Cl)cc2)cn1 |
| 135 to 136 °C | CCOc1ccc(-n2c(NCc3ccc(Cl)cc3)nc3ccc(Cl)cc32)cc1 |
| 120 to 122 °C | CCCNC(=O)Oc1ccc2c(ccn2N(CCC)c2ccncc2)c1 |
| 116 to 117 °C | CON=Cc1cc(=O)c(OCc2ccccc2)c(C(=O)c2ccc(Cc3ccc(F)cc3)o2)o1 |
| 231 to 233 °C | Nc1ncc(Cc2ccc3ccccc3c2)c(N)n1 |
| 218 to 220 °C | CCc1cc(C(=O)c2ccccc2Cl)c(-n2cnnc2CNC(=O)c2cc3ccccc3n2CC(=O)O)s1 |
| 125 to 126 °C | CS(=O)c1nnc(-c2ccccc2NC(=O)c2cccc(C(F)(F)F)c2)s1 (configuration not stated) |
| 59 to 61 °C | CC(=O)Oc1ccc([C@@H]2O[C@H]2CO)cc1 |
| 266 °C | CCc1ccc2[nH]c3cnn(C)c3c(=O)c2c1 |
| 101 °C | CC(=O)N1CCC(C(=O)OC2c3ccccc3C(=O)N2c2ccc3ccc(Cl)nc3n2)CC1 (configuration not stated) |
| 192 to 193 °C | CC(C)n1c(=O)[nH]c2cc(-c3ncc(C(F)(F)F)cc3Cl)ccc21 |
| 102 to 104 °C | CCOC(=O)c1cc(-c2ccccc2)n(-c2cccc(C(C)=O)c2)c1C |
| 78 to 81 °C | Cc1cc(=O)c(OCc2ccccc2)c(C=O)o1 |
| 77 to 78 °C | O=C(Nc1ccc(OCCN2CCOCC2)c2ccccc12)c1cccc(-c2cccnc2)c1 |
| 163 to 165 °C | CC1(C)CC(O)C(C)(C)c2cc(CC=Cc3ccccc3C#N)ccc21 (configuration not stated) |
| 125 to 126 °C | CNc1cccc(S(=O)(=O)c2ccc(N)cc2)c1 |
| 197 to 198 °C | O=C(N[C@H](Cc1ccc(C(F)(F)F)cc1)[C@@H](O)c1ccc(F)c(F)c1)c1ccc(F)c2ccccc12 (racemic) |
| 192 to 194 °C | Nc1n[nH]c(NC(=O)c2ccc3ccccc3c2)n1 |
| 160 to 162 °C | CCOCc1nc2c(N)nc3cc(OCCCn4cccc4)ccc3c2n1CC(C)C |
| 158 to 159 °C | CN(C)Cc1cccc2nc3n(c12)CCCN3c1ccc(Cl)cc1Cl |
| 183 to 185 °C | Cn1c(COc2ccc(CC3SC(=O)NC3=O)cc2)cc2cccnc21 (configuration not stated) |

| melting point | Structure (SMILES) |
| --- | --- |
| 191 to 194 °C | NS(=O)(=O)c1ccc(-c2cnn(CC=C(F)F)c(=O)c2-c2ccc(F)cc2)cc1 |
| 172 to 174 °C | Cc1ccc(C(=O)Nc2ccc(-c3ccccc3)c(C(F)(F)F)c2)cc1Nc1nccc(-c2cccnc2)n1 |
| > 250 °C | O=C1CCC(c2ccc(-c3ccc(=O)[nH]n3)cc2)=NN1 |
| 85 to 88 °C | Cc1ccc(S(=O)(=O)NC[C@H](C)NCc2c(Cl)ccc([N+](=O)[O-])c2Cl)cc1 |
| 88 to 89 °C | COC(=O)c1ccc(Cl)cc1NC(=O)CSc1ccccc1C |
| 147 to 148 °C | CC(C)n1nc(-c2cc(N)cnc2-c2ccccc2)ccc1=O |
| 124 to 126 °C | CC(=O)NC(C)c1ccc(CN2CCN(c3ncccn3)CC2)cc1 (configuration not stated) |
| 260 to 261 °C | COc1cc(CN/C=C2\C(=O)NC(=O)c3ccc(Br)cc32)ccc1O |
| 170 °C | O=C(c1ccc2ncccc2c1)c1ccc2nc(Cl)nc(-c3cccc(Cl)c3)c2c1 |
| 224 to 226 °C | COc1ccc2c(c1)C1=C(SCC3(CCNCC3)O1)C(=O)C2=O |
| 152 to 154 °C | C[C@H]1C(=O)Nc2c(N)cc(Cl)cc2N1C(=O)OCc1ccccc1 |
| 102 to 103 °C | O=C(O)CCc1ccc(CCNS(=O)(=O)c2ccccc2)cc1 |
| 158 °C | Oc1ccc2c(c1)SCCc1c-2n(CCCCCN2CCCC2)c2ccccc12 |
| 198 to 199 °C | NNC(=O)c1ccc2occ(-c3cc(F)ccc3F)c2c1 |
| 155 to 156 °C | CC(C)(C)c1cc(CCc2ccccc2NC(=O)NC2CCN(Cc3ccc(F)c(F)c3)CC2)cc(C(C)(C)C)c1O |
| 169 to 170 °C | CCCSC(C)(C(=O)O)c1ccc2oc(Cc3nc(-c4ccccc4)oc3C)cc2c1 (configuration not stated) |
| 114 to 115 °C | Nc1cccc(C(=O)c2ccc(Cl)cc2)c1 |
| 156 to 157 °C | NC(=O)CNC(=O)c1cccc(-c2cccc3oc(Cc4cc(F)cc(Cl)c4)cc23)c1 |
| 201 to 203 °C | Cc1c(C(=O)Nc2ccc(N3CCN(CCCc4cccnc4)CC3)c(C#N)c2)cnn1-c1ccc(Cl)cc1 |
| 145 to 147 °C | Cc1[nH]c(C(=O)N2CCN(c3ccccc3)CC2)c(C)c1-c1nc2ccc(C(=O)c3ccccc3)cc2[nH]1 |
| 236 to 238 °C | CN1CC(CO)OC1=C(C#N)C=C1Nc2ccccc2C1=O (configuration not stated) |
| 83.5 to 85 °C | Cc1ccc(-c2c(N=[N+]=[N-])ncnc2OCCO)cc1 |
| 122 to 125 °C | CCOC(=O)Cc1c(C)n(Cc2ccccc2)c2ccc(O)cc12 |

Further lines, the molecule ahead of its results:

| Structure (SMILES) | melting point |
| --- | --- |
| Clc1ccc2nc(-c3ccccc3)n(CCCN3CCN(C(c4ccccc4)c4ccccc4)CC3)c2c1 | 198 °C |
| c1ccc(COc2cncc(N3CCNCC3)n2)cc1 | 155 to 156 °C |
| COc1cc(-c2cnc3[nH]cc(C(=O)C4(C)CCC(O)CC4)c3n2)cc(OC)c1OC (configuration not stated) | 242 to 244 °C |
| O=C(N[C@H]1CC[C@H](CCN2CCN(c3nccc4c3CCO4)CC2)CC1)c1ccc(C(F)(F)F)cc1 | 227 °C |
| CCCc1c(O)c(C(C)=O)cc(Cl)c1OCCOCCOc1c(C(C)=O)ccc(OCC(=O)O)c1CCC | 89 to 91 °C |
| CCN[C@H]1CCC[C@H](Oc2ccc3[nH]ncc3c2)C1 (relative stereo) | 116 to 118 °C |
| CC(C)(C)c1ccc(NC(=O)N2CCCC3(CC2)CC(c2ccccc2)=NO3)cc1 (configuration not stated) | 137 to 142 °C |
| CC1(C)CC(SCc2c(F)cccc2F)=NO1 | 77 to 80 °C |
| Nc1c(F)c(N2CCNCC2)c(F)c2c1c(=O)c(C(=O)O)cn2C1CC1 | 257 to 259 °C |
| CCCCCC(O)CNC (configuration not stated) | 40 to 43 °C |
| Nc1ncc(Sc2ccc(O)cc2)s1 | 187 to 188 °C |
| CCCCCCCC[C@H](N[C@@H](C)C(=O)N1C(=O)N(C)C[C@H]1C(=O)O)C(=O)OCC | 85 to 86 °C |
| CCCCCCCCC(O)CNCCNCC(O)CCCCCCCC (configuration not stated) | 140 to 146 °C |
| CN(C)c1nc(O)cc(O)n1 | > 300 °C |
| C=CCOc1cc2c(cc1C(C)=O)CCCC2 | 62 to 63 °C |
| CNC1=NN(C(=O)c2ccccc2)C(C)(C)S1 | 130 to 136 °C |
| COc1ccccc1CCl | 69.5 to 70.5 °C |
| CC(C)(C)C#CC(O)C#CC(C)(C)C | 67 to 70 °C |
| CCOC(=O)CCC1CCN(C(=O)[C@H](C)NC(=O)c2ccc(C#N)cc2)CC1 | 108 to 109 °C |

| Structure (SMILES) | melting point |
| --- | --- |
| O=[N+]([O-])c1cccc(S(=O)(=O)N(CCO)CCO)c1 | 100 to 102 °C |
| CC(=O)OC[C@@H]1C=C[C@H](n2cnc3c(Cl)nc(N)nc32)C1 | 124 to 127 °C |
| O=C(CO)N1CCN(C(=O)CO)CC1 | 169 to 173 °C |
| CCOC(=O)C1=C(N)N=C(SCC)C(C(=O)OCC)C1c1cccc([N+](=O)[O-])c1 (configuration not stated) | 187 °C |
| C[C@]12C[C@H](c3ccc(OCCCCCl)cc3)C3=C4CCC(=O)C=C4CC[C@H]3[C@@H]1CCC2=O | 194 °C |
| CCCCCCCCCCCCCCCCCCOc1cn(CCC)c(CO)cc1=O | 120 to 121 °C |
| Cc1cccc(CCC(O)c2ccccc2)c1NC(=O)CC1c2ccccc2Oc2ccccc21 (configuration not stated) | 193 to 194 °C |
| CCOC(=O)N1CCC2(CC1)C(=O)OC(=O)N2c1ccccc1 | 211 °C |
| COc1c(NC(=O)c2ccc(C)c(-n3cc(C(=O)O)nn3)c2)cc(C(C)(C)C)cc1NS(C)(=O)=O | 222 to 224 °C |
| CC(C)C1Sc2ccccc2NC(=O)C1NC(=O)C(F)(F)F (configuration not stated) | 212 to 215 °C |
| NC(=O)C1(Nc2ccc(I)cc2)CCCC1 | 148 °C |
| COC(=O)[C@]1(O)Cc2c(OC)ccc(OC)c2C2(C1)SCCS2 | 115 to 117 °C |
| Cc1nn(-c2cccc(C(F)(F)F)c2)c(C)c1CC(=O)O | 83 to 85 °C |
| CCN(CC(C)Nc1c(C)cccc1C)C(C)=O (configuration not stated) | 58 to 60 °C |
| CCN(CC)c1ccncc1NC(=S)NC1CCCCC1 | 119 to 121 °C |
| O=C(O)c1ccc(CCOCCCCCCBr)s1 | 60 to 61 °C |
| C[Si](C)(C)c1ccc2c(c1)C(CN1CCCCC1)c1cc([Si](C)(C)C)ccc1-2 | 107 to 108 °C |
| CC(C)(C(=O)O)C1(c2ccc(Cl)cc2)CCC1 | 95 to 110 °C |
| COc1ccc(C(=Cc2ccncc2)c2ccncc2)cc1OC1CCCC1 | 136 to 138 °C |

| Structure (SMILES) | melting point |
| --- | --- |
| N[C@@H]1CN2CCC1CC2 | 118 to 121 °C |
| CN(C)C(=O)CCC(=NNC(N)=S)c1ccccc1 | 173 to 175 °C |
| COc1cccc2c1CCCC2n1cc[nH]c1=S (configuration not stated) | 176 to 177 °C |
| Nc1nc(Cl)nc(C2CC2)n1 | 139 to 142 °C |
| Cc1c2n(c(=O)[nH]c1=O)CCCS2 | 196 to 198 °C |
| O=C(Nc1ccccc1)Nc1cc(Br)nc(Br)c1 | 237 to 239 °C |
| CN(C)C(=O)c1ccc2c(c1)CC(=O)N2 | 147 to 148 °C |
| CCNC(=O)C1OC(n2cnc3c(NC(=O)Nc4ccc(S(=O)(=O)N5CCCCC5)cc4)ncnc32)C(O)C1O (configuration not stated) | 176 to 178 °C |
| CC(C)c1cc(C(=O)NCc2ccccc2)c(N)s1 | 170 to 172 °C |
| CCCCc1nc2c(N)nc3ccccc3c2n1CCCNC(=S)NCCC | 144 to 146 °C |
| O=C(C=Cc1ccc(S(=O)(=O)Nc2ccccc2)cc1)NO | 176 to 178 °C |
| Sc1nccn1-c1nccs1 | 211 to 213 °C |
| NC(=O)c1ncn2c1CN=C(c1ccccc1F)c1cc(Cl)ccc1-2 | 292 to 294 °C |
| CC1(C)Cc2cc(C3=NNC(=O)C4CC34)ccc2NC1=O (configuration not stated) | 275 to 277 °C |
| Nc1ncnc2c1ncn2OCC(O)COCP(=O)(O)O (configuration not stated) | 218 to 221 °C |
| ON=C(CCC(CN1CCN(c2ccccn2)CC1)C(=NO)c1ccccc1)c1ccccc1 (configuration not stated) | 75 to 78 °C |
| Cc1ccccc1C=CCC(CCC(=O)O)(C(=O)C=Cc1ccc(Cl)cc1)c1ccccc1 (configuration not stated) | 60 to 80 °C |
| N#Cc1cscc1Nc1ccc(Cl)cc1[N+](=O)[O-] | 214 °C |

Source: a melting point compilation (Tetko et al.; mined from patent text by program, amines drawn as free bases though some values may be those of a salt)
